# In patent publication US20230131501A1, “THERAPEUTIC USES OF INHIBITORS OF THE RNA-BINDING PROTEIN HuR” (University of Kansas, priority 2020, published 2023):
# Experiments:
# MDA-MB-231 = experiment: Cytotoxicity assay (WST-8); format: cell-based; conditions: Homo sapiens, MDA-MB-231, 96 h, read-out: Cytotoxicity (IC50, μM) MDA-MB-231
# Description: The cytotoxicity of the tested compounds in several cancer cell lines (HCT116 β/w, MIAPaCa-2, and MDA-MB-231) was determined by a cytotoxicity assay, where the results are provided in Table 1. Cells were seeded in 96-well culture plates (5,000 cells/well) and treated with titrated compounds in triplicate. After 96 h incubation, cell growth medium was removed and proliferation reagent WST-8 (Sigma) was added to each well and incubated at 37° C. for 1-3 h. Absorbance was then measured with a plate reader at 450 nm with correction at 650 nm. The results were expressed as the percentage of absorbance of treated wells versus that of vehicle control. IC50, the drug concentration causing 50% growth inhibition, was calculated via sigmoid curve fitting using GraphPad Prism 5.0. […]
# MIAPaCa-2 = experiment: Cytotoxicity assay (WST-8); format: cell-based; conditions: Homo sapiens, MIA PaCa-2, 96 h incubation
# Description: (§1) Cells were seeded in 96-well culture plates (5,000 cells/well) and treated with titrated compounds in triplicate. After 96 h incubation, cell growth medium was removed and proliferation reagent WST-8 (Sigma) was added to each well and incubated at 37° C. for 1-3 h. Absorbance was then measured with a plate reader at 450 nm with correction at 650 nm. The results were expressed as the percentage of absorbance of treated wells versus that of vehicle control.
# HCT116 β/w = experiment: Cytotoxicity assay (WST-8); format: cell-based; conditions: Homo sapiens, HCT-116, 96 h incubation
# Description: as §1
# [1] = target: T1, HuR protein interaction with the ARE site of Msi1 mRNA (HuR-Msi1^ARE) (Homo sapiens, UniProt Q15717); experiment: Fluorescence polarization (FP) assay, inhibition of HuR-Msi1 ARE interaction; format: binding; conditions: full-length human HuR, read-out: Ki via FP assay
# T1 construct: full-length human HuR protein was produced by the KU COBRE-PSF Protein Purification Group; made in house
# Source text: A fluorescence polarization (FP)-based binding assay was utilized to assess the inhibition of HuR protein interaction with the ARE site of Msi1 mRNA (“HuR-Msi1^ARE”) by compounds of interest. Briefly, full-length human HuR protein was produced by the KU COBRE-PSF Protein Purification Group and Bcl2, Msi1 and XIAP mRNA sequences (16 nt) were designed based on literature precedent^23,24,31,32. Fluorescein labeled RNAs were purchased from Dharmacon with the following sequences: Msi1 RNA: 5′-GCUUUUAUUUAUUUUG-3′-fluorescein; Bcl-2 RNA: 5′-AAAAGAUUUAUUUAUU-3′-fluorescein; XIAP RNA: 5′-UAGUUAUUUUUA UGUC-3′-fluorescein, and a 16-nt degenerative RNA with 3′-fluorescein label was used as a negative control.
# [2] = test system: panel of cancer cell lines; experiment: Cytotoxicity assay, expanded panel of cell lines; format: cell-based
# Description: The cytotoxicity of the tested compounds in several cancer cell lines (HCT116 β/w, MIAPaCa-2, and MDA-MB-231) was determined by a cytotoxicity assay, where the results are provided in Table 1. Cells were seeded in 96-well culture plates (5,000 cells/well) and treated with titrated compounds in triplicate. After 96 h incubation, cell growth medium was removed and proliferation reagent WST-8 (Sigma) was added to each well and incubated at 37° C. for 1-3 h. Absorbance was then measured with a plate reader at 450 nm with correction at 650 nm. The results were expressed as the percentage of absorbance of treated wells versus that of vehicle control. IC50, the drug concentration causing 50% growth inhibition, was calculated via sigmoid curve fitting using GraphPad Prism 5.0.
# The assay was then utilized to assess cytotoxicity of KH-3 against an expanded panel of cell lines (including normal cell line WI-38), where FIGS. 4A-4C provide the results.
# BxPC-3 cells = experiment: MTT cell viability; format: cell-based; conditions: Homo sapiens; BxPC-3, 48 hours
# Description: (§2) Pancreatic cancer cell lines were obtained from the American Type Culture Collection (Manassas, Va.). hTERT-HPNE cells (immortalized human pancreatic ductal epithelial cells) were donated by Dr. Anant at the University of Kansas Medical Center. MTT assay was used for cell viability detection, with starting cell number in 96-well plate of 3000/well (for 72 h treatment) or 5000/well (for 48 h treatment).
# (§3) Pancreatic cancer cell lines with different endogenous HuR expression levels were treated with serial concentrations of KH-3 for 48 hours. KH-3 induced cytotoxicity in pancreatic cancer cells, with the sensitivity correlated to endogenous HuR protein levels (FIG. 30). MIA PaCa2 cells have the highest HuR protein abundance among the tested cell lines and were the most sensitive to HuR treatment (IC50=5 μM). […] BxPC-3 cells, another human pancreatic cancer cell line, have HuR expression level in the middle, and the IC50 of KH-3 was in the middle (10 μM). A non-cancerous human pancreatic ductal epithelial cell line (hTERT-HPNE) was tested under the same conditions. hTERT-HPEN cells have the lowest abundance of HuR protein compared to the cancer cells, and the cytotoxicity of KH-3 to these cells were minimal (IC50>>40 μM). There is an inverse correlation in the tested cell lines between the HuR expression levels and the sensitivity to KH-3 treatment (FIG. 30) (R=−0.71 by Pearson Tests).
# PANC-1 cells = experiment: MTT cell viability; format: cell-based; conditions: Homo sapiens; PANC-1, 48 hours
# Description: as §2, §3
# MIA PaCa2 cells = experiment: MTT cell viability; format: cell-based; conditions: Homo sapiens, MIA PaCa-2; MIA PaCa2, 48 hours
# Description: as §2, §3
# T1 sequence (Q15717 whole entry): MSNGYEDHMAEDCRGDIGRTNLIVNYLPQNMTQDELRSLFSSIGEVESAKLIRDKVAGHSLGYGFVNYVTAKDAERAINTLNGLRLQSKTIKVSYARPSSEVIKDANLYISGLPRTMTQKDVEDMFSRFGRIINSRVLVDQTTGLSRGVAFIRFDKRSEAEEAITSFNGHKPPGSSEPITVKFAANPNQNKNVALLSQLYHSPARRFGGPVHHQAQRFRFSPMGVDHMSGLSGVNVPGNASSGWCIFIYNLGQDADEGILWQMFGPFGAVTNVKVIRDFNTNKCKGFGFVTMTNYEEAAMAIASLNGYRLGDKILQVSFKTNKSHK
compound,measurement,setting,value
CC(C)(C)c1ccc(S(=O)(=O)Nc2ccc3sc(/C=C/C(=O)NO)cc3c2)cc1 [KH-3],IC50,MDA-MB-231,4.15 µM
same,IC50,MIAPaCa-2,4.5 µM
same,IC50,HCT116 β/w,3.6 µM
same,Ki,[1],0.81 µM
same,cytotoxicity across a panel of cancer cell lines,[2],potent cytotoxicity
same,IC50,BxPC-3 cells,10 µM
same,IC50,PANC-1 cells,25 µM
same,IC50,MIA PaCa2 cells,5 µM
